Measurements as given in PubChem BioAssay (NCI).
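All cell lines were grown in 96-well plates and treated with compound for 48 hours. TGI: concentration producing complete growth inhibition.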

Key:
Test in all cases: NCI anticancer screen, dose series, 48 h
[1] = test system: SF-539 CNS
[2] = test system: MALME-3M melanoma
[3] = test system: HS 578T breast
[4] = test system: MDA-N
[5] = test system: 786-0 renal
[6] = test system: OVCAR-3 ovarian
[7] = test system: SK-MEL-28 melanoma
[8] = test system: SNB-75 CNS
[9] = test system: UACC-62 melanoma
[10] = test system: SK-MEL-5 melanoma
[11] = test system: OVCAR-4 ovarian
[12] = test system: A549 NSCLC
[13] = test system: BT-549 breast
[14] = test system: K-562 leukemia
[15] = test system: NCI-H460 lung
[16] = test system: RPMI-8226 leukemia
[17] = test system: HOP-62 NSCLC
[18] = test system: MDA-MB-231 breast
[19] = test system: NCI-H23 lung
[20] = test system: U251 CNS
[21] = test system: OVCAR-5 ovarian
[22] = test system: UO-31 renal
[23] = test system: HL-60(TB) leukemia
[24] = test system: M14 melanoma
[25] = test system: SK-OV-3 ovarian
[26] = test system: RXF 393 renal
[27] = test system: NCI-H522 lung
[28] = test system: SK-MEL-2 melanoma
[29] = test system: HOP-92 NSCLC
[30] = test system: SF-268 CNS
[31] = test system: A498 renal
[32] = test system: SN12C renal
[33] = test system: SW-620 colon
[34] = test system: MDA-MB-435
[35] = test system: EKVX NSCLC
[36] = test system: LOX IMVI melanoma
[37] = test system: COLO 205 colon
[38] = test system: NCI-H226 lung
[39] = test system: SF-295 CNS
[40] = test system: IGROV1 ovarian
[41] = test system: SNB-19 CNS
[42] = test system: OVCAR-8 ovarian
[43] = test system: HCT-116 colon
[44] = test system: T-47D breast
[45] = test system: HCT-15 colon
[46] = test system: NCI/ADR-RES ovarian
[47] = test system: KM12 colon
[48] = test system: PC-3 prostate
[49] = test system: TK-10 renal
[50] = test system: ACHN renal
[51] = test system: MOLT-4 leukemia
[52] = test system: SR leukemia
[53] = test system: HT29 colon
[54] = test system: MCF7 breast
[55] = test system: DU-145 prostate
[56] = test system: UACC-257 melanoma
[57] = test system: HCC-2998 colon
[58] = test system: CAKI-1 renal
[59] = test system: CCRF-CEM leukemia

CC/C(Cl)=N\OC(=O)Nc1ccc(F)c(Cl)c1
TGI [1]: 37.3 µM | TGI [2]: 9.29 µM | TGI [3]: > 100 µM | TGI [4]: 33.4 µM | TGI [5]: 18 µM | TGI [6]: 8.03 µM | TGI [7]: 30.1 µM | TGI [8]: 26.2 µM | TGI [9]: 46.3 µM | TGI [10]: 29 µM | TGI [11]: 31.1 µM | TGI [12]: 54.9 µM | TGI [13]: 51.3 µM | TGI [14]: 3.26 µM | TGI [15]: 34.3 µM | TGI [16]: > 100 µM | TGI [17]: 34.3 µM | TGI [18]: 41.5 µM | TGI [19]: 45.7 µM | TGI [20]: 33.9 µM | TGI [21]: 31.4 µM | TGI [22]: 32.3 µM | TGI [23]: 4.33 µM | TGI [24]: 23.1 µM | TGI [25]: 32.5 µM | TGI [26]: 34.5 µM | TGI [27]: 3.44 µM | TGI [28]: 33.5 µM | TGI [29]: 9.41 µM | TGI [30]: 43.4 µM | TGI [31]: 30.8 µM | TGI [32]: 40.2 µM | TGI [33]: 6.92 µM | TGI [34]: 39.4 µM | TGI [35]: 32.9 µM | TGI [36]: 9.68 µM | TGI [37]: 8.16 µM | TGI [38]: 51.3 µM | TGI [39]: 33.1 µM | TGI [40]: 34.7 µM | TGI [41]: 20.7 µM | TGI [42]: 36.8 µM | TGI [43]: 35.3 µM | TGI [44]: 21.3 µM | TGI [45]: 35.5 µM | TGI [46]: 42.7 µM | TGI [47]: 35 µM | TGI [48]: 29.6 µM | TGI [49]: 31.3 µM | TGI [50]: 26.7 µM | TGI [51]: 2.11 µM | TGI [52]: 13.1 µM | TGI [53]: 55.2 µM | TGI [54]: 20.1 µM | TGI [55]: 34.2 µM | TGI [56]: 31.9 µM | TGI [57]: 35.3 µM | TGI [58]: 9.55 µM | TGI [59]: 4.91 µM

CCOC(=O)C#Cc1cccc(C#CC(=O)OCC)c1
TGI [1]: 9.65 µM | TGI [2]: 12.1 µM | TGI [3]: > 30.3 µM | TGI [4]: 6.44 µM | TGI [5]: 8.85 µM | TGI [6]: 13.4 µM | TGI [7]: 9.99 µM | TGI [8]: 13.4 µM | TGI [9]: 9.53 µM | TGI [10]: 8.29 µM | TGI [11]: 7.59 µM | TGI [12]: 16.6 µM | TGI [13]: 5.1 µM | TGI [15]: 39.2 µM | TGI [16]: 13 µM | TGI [17]: 11.6 µM | TGI [18]: 11.2 µM | TGI [19]: 10.6 µM | TGI [20]: 9.87 µM | TGI [21]: 2.4 µM | TGI [22]: 10.1 µM | TGI [23]: 4.06 µM | TGI [24]: 5.95 µM | TGI [25]: 19.5 µM | TGI [26]: 10.9 µM | TGI [27]: 30.9 µM | TGI [28]: 5.04 µM | TGI [29]: 11.8 µM | TGI [30]: 16.7 µM | TGI [31]: 36.2 µM | TGI [32]: 8.21 µM | TGI [33]: 14.6 µM | TGI [34]: 9.52 µM | TGI [35]: 2.42 µM | TGI [36]: 5.83 µM | TGI [37]: 9.92 µM | TGI [38]: 22.1 µM | TGI [39]: 3.48 µM | TGI [40]: 32.5 µM | TGI [41]: 11.4 µM | TGI [42]: 26 µM | TGI [43]: 7.1 µM | TGI [44]: 98.4 µM | TGI [45]: 16.1 µM | TGI [46]: 14.6 µM | TGI [47]: 15.2 µM | TGI [48]: 14.9 µM | TGI [49]: 10.6 µM | TGI [50]: 11.6 µM | TGI [52]: 3.25 µM | TGI [53]: 9.07 µM | TGI [54]: 15.6 µM | TGI [55]: 17.9 µM | TGI [56]: 24.2 µM | TGI [57]: 2.1 µM | TGI [58]: 10.2 µM | TGI [59]: 6.34 µM

COC(=O)[C@]12CC[C@H]3CN(S(=O)(=O)c4ccc(C)cc4)[C@H]([C@H]31)[C@H](c1ccco1)N2S(=O)(=O)c1ccc(C)cc1
TGI [1]: > 100 µM | TGI [2]: 58.3 µM | TGI [3]: > 100 µM | TGI [4]: 73.7 µM | TGI [5]: > 100 µM | TGI [6]: > 100 µM | TGI [7]: > 100 µM | TGI [9]: 69.3 µM | TGI [10]: > 100 µM | TGI [11]: > 100 µM | TGI [12]: > 100 µM | TGI [13]: 91.6 µM | TGI [14]: > 100 µM | TGI [15]: > 100 µM | TGI [16]: 86.2 µM | TGI [17]: > 100 µM | TGI [18]: > 100 µM | TGI [19]: > 100 µM | TGI [20]: > 100 µM | TGI [21]: > 100 µM | TGI [22]: > 100 µM | TGI [23]: 91.5 µM | TGI [24]: 92.4 µM | TGI [25]: > 100 µM | TGI [26]: 71.5 µM | TGI [27]: > 100 µM | TGI [28]: > 100 µM | TGI [29]: 62.8 µM | TGI [30]: > 100 µM | TGI [31]: > 100 µM | TGI [32]: > 100 µM | TGI [33]: > 100 µM | TGI [34]: 55.8 µM | TGI [35]: > 100 µM | TGI [36]: > 100 µM | TGI [37]: 45.3 µM | TGI [38]: > 100 µM | TGI [39]: > 100 µM | TGI [40]: > 100 µM | TGI [41]: > 100 µM | TGI [42]: > 100 µM | TGI [43]: > 100 µM | TGI [44]: 49.5 µM | TGI [45]: > 100 µM | TGI [46]: > 100 µM | TGI [47]: > 100 µM | TGI [48]: > 100 µM | TGI [49]: > 100 µM | TGI [50]: > 100 µM | TGI [51]: > 100 µM | TGI [52]: > 100 µM | TGI [53]: > 100 µM | TGI [54]: > 100 µM | TGI [55]: > 100 µM | TGI [56]: 81.1 µM | TGI [57]: > 100 µM | TGI [58]: > 100 µM | TGI [59]: > 100 µM

OC1C2CCCCN2C[C@@H](O)[C@H]1O (stereo partly drawn)
TGI [1]: > 100 µM | TGI [2]: > 100 µM | TGI [3]: > 100 µM | TGI [4]: > 100 µM | TGI [5]: > 100 µM | TGI [6]: > 100 µM | TGI [7]: > 100 µM | TGI [8]: > 100 µM | TGI [9]: > 100 µM | TGI [10]: > 100 µM | TGI [11]: > 100 µM | TGI [12]: > 100 µM | TGI [13]: > 100 µM | TGI [14]: > 100 µM | TGI [15]: > 100 µM | TGI [16]: > 100 µM | TGI [17]: > 100 µM | TGI [18]: > 100 µM | TGI [19]: > 100 µM | TGI [20]: > 100 µM | TGI [21]: > 100 µM | TGI [22]: > 100 µM | TGI [23]: > 100 µM | TGI [24]: > 100 µM | TGI [25]: > 100 µM | TGI [26]: > 100 µM | TGI [27]: > 100 µM | TGI [28]: > 100 µM | TGI [29]: > 100 µM | TGI [30]: > 100 µM | TGI [31]: > 100 µM | TGI [32]: > 100 µM | TGI [33]: > 100 µM | TGI [34]: > 100 µM | TGI [35]: > 100 µM | TGI [36]: > 100 µM | TGI [37]: > 100 µM | TGI [38]: > 100 µM | TGI [39]: > 100 µM | TGI [40]: > 100 µM | TGI [41]: > 100 µM | TGI [42]: > 100 µM | TGI [43]: > 100 µM | TGI [44]: > 100 µM | TGI [45]: > 100 µM | TGI [46]: > 100 µM | TGI [47]: > 100 µM | TGI [48]: > 100 µM | TGI [49]: > 100 µM | TGI [50]: > 100 µM | TGI [51]: > 100 µM | TGI [52]: > 100 µM | TGI [53]: > 100 µM | TGI [54]: > 100 µM | TGI [55]: > 100 µM | TGI [56]: > 100 µM | TGI [57]: > 100 µM | TGI [58]: > 100 µM | TGI [59]: > 100 µM
